Test results as given in US8124121B2, “Flavors, flavor modifiers, tastants, taste enhancers, umami or sweet tastants, and/or enhancers and use thereof” (Senomyx, Inc., priority 2003, dated 2012).
Blank lines part the entries; values can stand above or below the compound they belong to.

Key:
[1] = target: T1, hT1R1/hT1R3 umami receptor (Homo sapiens, UniProt Q7RTX0+Q7RTX1); assay: Umami taste enhancement activity assay (EC50 ratio vs. MSG); format: cell-based
T1 construct: expressed in transfected cells; host or cells: HEK293 derivative stably expressing Gα15, clone I-17, expression induced with mifepristone
T1 sequence (Q7RTX1 21-841): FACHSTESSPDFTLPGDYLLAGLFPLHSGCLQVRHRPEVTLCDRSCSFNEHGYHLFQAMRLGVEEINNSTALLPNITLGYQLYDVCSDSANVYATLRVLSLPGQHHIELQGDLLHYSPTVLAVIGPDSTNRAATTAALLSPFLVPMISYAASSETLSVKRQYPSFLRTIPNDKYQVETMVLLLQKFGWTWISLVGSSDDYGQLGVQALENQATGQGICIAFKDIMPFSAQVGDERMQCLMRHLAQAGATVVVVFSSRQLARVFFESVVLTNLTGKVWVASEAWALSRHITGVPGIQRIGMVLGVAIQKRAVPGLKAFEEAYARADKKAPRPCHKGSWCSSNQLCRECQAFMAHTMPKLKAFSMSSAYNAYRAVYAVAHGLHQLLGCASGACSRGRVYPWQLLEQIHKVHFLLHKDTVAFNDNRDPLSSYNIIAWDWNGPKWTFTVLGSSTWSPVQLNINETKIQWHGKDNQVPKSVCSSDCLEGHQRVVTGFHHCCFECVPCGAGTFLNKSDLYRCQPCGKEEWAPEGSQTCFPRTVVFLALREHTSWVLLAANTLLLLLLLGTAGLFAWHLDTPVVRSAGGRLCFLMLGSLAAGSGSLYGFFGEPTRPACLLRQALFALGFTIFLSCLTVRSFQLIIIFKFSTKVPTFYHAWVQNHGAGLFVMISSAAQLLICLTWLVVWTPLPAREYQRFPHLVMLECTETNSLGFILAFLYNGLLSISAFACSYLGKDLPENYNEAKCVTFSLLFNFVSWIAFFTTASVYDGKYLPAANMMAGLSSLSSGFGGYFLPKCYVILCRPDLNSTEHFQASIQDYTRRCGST
T1 sequence (Q7RTX0 21-852): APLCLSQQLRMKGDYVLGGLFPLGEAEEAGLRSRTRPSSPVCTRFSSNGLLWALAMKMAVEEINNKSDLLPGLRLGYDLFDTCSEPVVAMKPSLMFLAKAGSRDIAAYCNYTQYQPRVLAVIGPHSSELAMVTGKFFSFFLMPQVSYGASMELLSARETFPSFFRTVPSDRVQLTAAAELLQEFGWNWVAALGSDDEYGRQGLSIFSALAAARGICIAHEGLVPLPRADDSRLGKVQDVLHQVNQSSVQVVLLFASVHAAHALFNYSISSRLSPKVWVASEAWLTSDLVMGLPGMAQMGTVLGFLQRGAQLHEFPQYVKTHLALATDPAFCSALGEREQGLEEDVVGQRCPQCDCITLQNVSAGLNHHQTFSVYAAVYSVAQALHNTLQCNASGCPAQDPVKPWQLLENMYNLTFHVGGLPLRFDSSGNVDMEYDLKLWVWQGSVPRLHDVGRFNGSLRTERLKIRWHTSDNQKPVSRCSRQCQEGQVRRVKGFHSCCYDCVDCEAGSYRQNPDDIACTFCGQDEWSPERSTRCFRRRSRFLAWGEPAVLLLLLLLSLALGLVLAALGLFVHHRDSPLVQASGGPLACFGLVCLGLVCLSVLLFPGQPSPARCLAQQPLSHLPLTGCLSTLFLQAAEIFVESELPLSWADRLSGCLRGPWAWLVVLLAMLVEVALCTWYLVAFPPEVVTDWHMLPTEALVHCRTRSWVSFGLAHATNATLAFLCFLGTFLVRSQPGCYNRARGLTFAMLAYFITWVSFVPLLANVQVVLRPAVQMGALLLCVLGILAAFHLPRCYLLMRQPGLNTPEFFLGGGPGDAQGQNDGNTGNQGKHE
Experimental: A series of measurements of the dose response is run in solutions comprising MSG alone, then a second dose response is run with MSG in combination with predetermined amounts of a candidate compound of Formula (I) at the same time.
Typical compound concentrations tested were 30 μM, 10 μM, 3 μM, 1 μM, 0.3 μM, 0.1 μM and 0.03 μM. The relative efficacy of compounds of Formula (I) at enhancing the receptor was determined by calculating the magnitude of a shift in the EC50 for monosodium glutamate. Enhancement was defined as a ratio (EC50R) corresponding to the EC50 of monosodium glutamate, determined in the absence of the test compound, divided by the EC50 of monosodium glutamate, determined in the presence of the test compound.
Stated alternatively, “EC50 ratio” as compared to MSG is calculated based on the following definitions: EC50 Ratio vs. MSG=EC50 (MSG)/EC50(MSG+[Compound]) • wherein “[compound]” refers to the concentration of the compound of Formula (I) used to elicit (or enhance or potentiate) the MSG dose response.

[2] = system: savory taste, human panelists; assay: Umami/savory flavor experiments using human panelists (trained panel, difference from reference); format: in vivo; settings: 12 mM MSG + cpd vs reference 12 mM MSG + 100 μM IMP
Experimental: General Panelist Selection: Basic screening of sensory taste testers: Potential panelists were tested for their abilities to rank and rate intensities of solutions representing the five basic tastes. Panelists ranked and rated intensity of five different concentrations of each of the five following compounds: sucrose (sweet), sodium chloride (salty), citric acid (sour), caffeine (bitter), and monosodium glutamate (savory). In order to be selected for participation in testing, panelists needed to correctly rank and rate samples for intensity, with a reasonable number of errors
Preliminary Taste Tests: The panelists selected in the above procedure were deemed qualified for performing Preliminary Taste Testing procedures. The preliminary taste tests are used to evaluate new compounds for intensity of basic tastes and off-tastes. A small group of panelists (n=5) taste approximately 5 concentrations of the compound (range typically between 1-100 μM, in half-log cycles, e.g., 1, 3, 10, 30, and 100 μM) in water and in a solution of 12 mM MSG to evaluate enhancement. Panelists rate the five basic tastes (sweet, salty, sour, bitter, and savory) as well as off-tastes (such as chemical, metallic, sulfur) on a labeled magnitude scale. Samples are served in 10 mL portions at room temperature. The purpose of the test is to determine the highest concentration at which there is no objectionable off-taste, and determine if obvious savory taste or enhancement of savory taste exists at any of the concentrations tested.
Trained Panelist Selection: A trained expert panel was used to further evaluate compounds that had been tested with the preliminary taste test.
Panelists for the trained panel were selected from the larger group of qualifying taste panelists. Panelists were further trained on savory taste by ranking and rating experiments using MSG and IMP combinations. Panelists completed a series of ranking, rating, and difference from reference tests with savory solutions. In ranking and rating experiments, panelists evaluated easy MSG concentrations (0, 6, 18, 36 mM) and more difficult MSG concentrations (3, 6, 12, 18 mM MSG) in water.
Compound testing with Trained Panel: Compounds tested by the trained panel were evaluated in difference from reference experiments. […] Test samples were solutions with varying amounts of MSG, IMP, and the compound.
Compounds were tested against the reference in samples with and without 12 mM MSG. All samples were presented in 10 ml volumes at room temperature. Two sessions were completed for each compound tested to evaluate panel reproducibility.

[3] = system: sweet taste, human panelists; assay: Sweet flavor and sweet flavor enhancement measurement using human panelists; format: in vivo
Experimental: Overview: Various concentrations of the experimental compound (normally aqueous solutions containing 1, 3, 10, and 30 uM concentrations of the experimental compound; and optionally 50 uM and/or 100 uM concentrations) are individually tasted by trained human subjects and rated for intensity of several taste attributes. The experimental compound may also be tasted when dissolved in a “key tastant” solution.
Procedure: An appropriate quantity of the experimental compound is dissolved in water typically also containing 0.1% ethanol, which is utilized to aid initial dispersion of the compound in the aqeuous stock solution. When appropriate, the experimental compound may also be dissolved in aqueous solutions of a “key tastant” (for example, 4% sucrose, 6% sucrose, 6% fructose/glucose, or 7% fructose/glucose, at pH 7.1 or 2.8).
Five human Subjects are used for preliminary taste tests. […] Subjects refrain from eating or drinking (except water) for at least 1 hour prior to the test. Subjects eat a cracker and rinse with water four times to clean the mouth before taste tests.
The aqueous solutions are dispensed in 10 ml volumes into 1 oz. sample cups and served to the Subjects at room temperature. Samples of the experimental compound dissolved in an appropriate key tastant (e.g., 4% sucrose, 6% fructose, or 6% fructose/glucose, typically at pH 7.1) at various concentrations of the experimental compound may also be served to the Subjects. Subjects also receive a reference sample of the key tastant (e.g., sucrose, fructose, or fructose/glucose, typically at pH 7.1) at different concentrations for comparison.
Subjects taste the solutions, starting with the lowest concentration, and rate intensity of the following attributes on the Labeled Magnitude Scale (LMS) for sweetness, saltiness, sourness, bitterness, savory (umami), and other (off-taste). Subjects rinse three times with water between tastings. If a particular concentration elicits an undesirable characteristic or off-taste, subsequent tastings of higher concentrations are eliminated. After a break, Subjects taste a solution of the key tastant (e.g., 4% sucrose, 6% fructose, or 6% fructose/glucose, typically at pH 7.1) without the experimental compound. Then solutions of the key tastant plus experimental compound are tasted in increasing order of concentration. The key tastant solution can be retasted for comparison with key tastant+experimental compound solutions if necessary. Discussion among panelists is permitted.
Subjects rate the difference in intensity of the test sample compared to the reference sample for the key attribute on a scale of −5 (much less sweet than the reference) to +5 (much more sweet than the reference). A score of 0 indicates the test sample is equally as sweet as the reference. […]

EC50 ratio (enhanced the effectiveness of monosodium glutamate) ([1]; compound present at 0.1 μM): 4.9
Structure (SMILES): COC(=O)[C@@H](CC(C)C)NC(=O)c1ccc2c(c1)OCO2 [Example 6, (R)-methyl 2-(benzo[d][1,3]dioxole-6-carboxamido)-4-methylpentanoate]
Taste Data: concentration of cpd with 12 mM MSG that is as strong as 12 mM MSG + 100 μM IMP [2]: 12 mM MSG + 10 μM cpd as strong as

Structure (SMILES): O=C(Nc1ccc2c(c1)OCO2)N1Cc2ccccc2C1 [Example 174, N-(3,4-methylenedioxyphenyl)isoindoline-2-carboxamide]
Perceived Equivalent Sweet Solution ([3]; 50 uM compound + 4% sucrose, pH not measured or controlled): 6% sucrose

Structure (SMILES): Cc1cccc(C)c1C(=O)NC1CCCCC1C (stereo not shown) [Example 168, 2,6-dimethyl-N-(2-methylcyclohexyl)benzamide]
Perceived Equivalent Sweet Solution ([3]; 30 uM compound + 6% fructose/glucose, pH 7.1): Equal to 8% fructose/ % fructose/glucose

Structure (SMILES): COC[C@@H](CC(C)C)NC(=O)c1ccc(OC)c(C)c1 [Example 104, 4-Methoxy-N-(1-methoxymethyl-3-methyl-butyl)-3-methyl-benzamide]
Taste Data: concentration of cpd with 12 mM MSG that is as strong as 12 mM MSG + 100 μM IMP [2]: 12 mM MSG + 3 μM cpd as strong as

Structure (SMILES): COC[C@@H](CC(C)C)NC(=O)c1ccc(C)c(C)c1 [Example 71, (R)—N-(1-methoxy-4-methylpentan-2-yl)-3,4-dimethylbenzamide]
Taste Data: concentration of cpd with 12 mM MSG that is as strong as 12 mM MSG + 100 μM IMP [2]: 12 mM MSG + 3 μM cpd as strong as

EC50 ratio (enhanced the effectiveness of monosodium glutamate) ([1]; compound present at 0.03 μM): 6.92
Structure (SMILES): CCCC(CCC)NC(=O)c1ccc2c(c1)OCO2 [Example 1, N-(heptan-4-yl)benzo[d][1,3]dioxole-5-carboxamide]
Taste Data: concentration of cpd with 12 mM MSG that is as strong as 12 mM MSG + 100 μM IMP [2]: 12 mM MSG + 3 μM cpd as strong as

Structure (SMILES): COC(=O)[C@@H](CC(C)C)NC(=O)c1cc(C)c(C)o1 [Example 98, (R)-methyl-2-(2,3-dimethylfuran-5-carboxamido)-4-methylpentanoate]
Taste Data: concentration of cpd with 12 mM MSG that is as strong as 12 mM MSG + 100 μM IMP [2]: 12 mM MSG + 10 μM cpd as strong as

EC50 ratio (enhanced the effectiveness of monosodium glutamate) ([1]; compound present at 0.3 μM): 6.51
Structure (SMILES): COc1ccc(CNC(=O)C(=O)NCCc2ccccn2)c(OC)c1 [Example 123, N-(2,4-Dimethoxy-benzyl)-N′-(2-pyridin-2-yl-ethyl)-oxalamide]
Taste Data: concentration of cpd with 12 mM MSG that is as strong as 12 mM MSG + 100 μM IMP [2]: 12 mM MSG + 1 μM cpd as strong as

EC50 ratio (enhanced the effectiveness of monosodium glutamate) ([1]; compound present at 3 μM): 2
Structure (SMILES): CC(C)C[C@H](CO)NC(=O)c1ccc2c(c1)OCO2 [Example 8, (R)—N-(1-hydroxy-4-methylpentan-2-yl)benzo[d][1,3]dioxole-5-carboxamide]

EC50 ratio (enhanced the effectiveness of monosodium glutamate) ([1]; compound present at 1 μM): 11
Structure (SMILES): COc1ccc(CNC(=O)c2ccccc2-n2cccc2)c(OC)c1 [Example 121, N-(2,4-dimethoxybenzyl)-2-(1H-pyrrol-1-yl)benzamide]
